Values quoted from earlier work as cited in patent US9555001B2, “Pharmaceutical composition and uses thereof” (Boehringer Ingelheim International GmbH, priority 2012, dated 2017).

Settings: crystalline form described in WO 2006/117359

For `OC[C@H]1O[C@@H](c2ccc(Cl)c(Cc3ccc(O[C@H]4CCOC4)cc3)c2)[C@H](O)[C@@H](O)[C@@H]1O` [Compound “A”, 1-chloro-4-(β-D-glucopyranos-1-yl)-2-[4-((S)-tetrahydrofuran-3-yloxy)-benzyl]-benzene], the physico-chemical stability is listed as “physico-chemically stable” and the solubility is listed as “good solubility properties”.
